# Test results reported in patent publication US10941109B2, “Compositions and methods of treatment using a BCAT1 inhibitor” (Ergon Pharmaceuticals, LLC, priority 2011, dated 2021).
# System: TGF-β1-stimulated human fibroblasts
# Test: Collagen I production from TGF-β1-stimulated human fibroblasts (ELISA)
# Format: cell-based
# Details: for inhibition of collagen I secretion: at a concentration of 5-10 mM; for % Control Collagen Production: 30 min pretreatment, 7 ng/mL TGF-β1 for 48 hrs, collagen I per μg cell lysate
# Procedure: In vitro fibrosis is assessed by measuring collagen synthesis after treatment of fibroblast cells with a profibrotic stimuli such as TGF-β1 or bleomycin. Collagen secretion into the media can be quantified in conditioned media using an appropriate ELISA kit.
# Confluent monolayers of human fibroblasts, plated onto duplicate 35 mm dishes, were pretreated with various concentrations of compounds 2, 6, and 7 for 30 min followed by stimulation of the cells with 7 ng/mL TGF-β1 for 48 hrs. At the end of the experiment, conditioned media were collected and assessed for the presence of secreted collagen I, whereas cells were collected and lysed. Collagen I secretion was quantified using an ELISA kit from R&D Systems per the manufacturer's instructions and expressed as arbitrary absorbance units per μg of cell lysate. In Table 2, results are shown as % Control Collagen Production, defined as the amount of collagen I secreted per μg of cell lysate from fibroblast cultures stimulated with TGF-β1 in the absence of an inhibitor.
Compound,inhibition of collagen I secretion,% Control Collagen Production (compound concentration 5 mM) [%],% Control Collagen Production (compound concentration 10 mM) [%],% Control Collagen Production (compound concentration 2 mM) [%]
"CC(CCC(=O)O)C(=O)c1ccccc1 (stereo not drawn) [Compound 6, 4-methyl-5-oxo-5-phenylpentanoic acid]",completely inhibit,77,2,–
"CC(=O)C(CCC(=O)O)c1ccccc1 (stereo not drawn) [Compound 7, 5-oxo-4-phenylhexanoic acid]",completely inhibit,41,2,150
"CC(=O)C(C)CC(Cc1ccccc1)C(=O)O (stereo not drawn) [Compound 2, 2-benzyl-4-methyl-5-oxohexanoic acid]",completely inhibit,4,–,–
